In ChEMBL document CHEMBL3885881, “DrugMatrix”:

Species: Rattus norvegicus
Assay: DrugMatrix - Regimen: Daily Repeat
Format: toxicity, organism-based, Sprague-Dawley
Design: regimen Daily Repeat, gender Male, age 6-8 weeks
Conditions: in vivo, po, route oral GAVAGE, vehicle .5 % CMC; for BASOPHIL / EOSINOPHIL / ERYTHROCYTE COUNT / HEMATOCRIT / HEMOGLOBIN / LEUKOCYTE COUNT / LYMPHOCYTE / MEAN CORPUSCULAR HEMOGLOBIN / MEAN CORPUSCULAR HEMOGLOBIN CONCENTRATION / MEAN CORPUSCULAR VOLUME / MONOCYTE / NEUTROPHIL / PLATELET COUNT: tissue Blood; for ALANINE AMINOTRANSFERASE / ALBUMIN / ALKALINE PHOSPHATASE / ASPARTATE AMINOTRANSFERASE / BLOOD UREA NITROGEN / CHLORIDE / CHOLESTEROL / CREATINE PHOSPHOKINASE / CREATININE / GLUCOSE / PHOSPHORUS / POTASSIUM / SODIUM / TOTAL BILIRUBIN / TOTAL PROTEIN: tissue Plasma
[1] = 0 mg/kg, 72 h, dose level Control, time 3 day
[2] = 0 mg/kg, 120 h, dose level Control, time 5 day
[3] = 32 mg/kg, 72 h, dose level Low, time 3 day
[4] = 32 mg/kg, 120 h, dose level Low, time 5 day

Structure (SMILES): CC[C@H]1OC(=O)[C@H](C)[C@@H](O[C@H]2C[C@@](C)(OC)[C@@H](O)[C@H](C)O2)[C@H](C)[C@@H](O[C@@H]2O[C@H](C)C[C@H](N(C)C)[C@H]2O)[C@](C)(O)C[C@@H](C)/C(=N\OCOCCOC)[C@H](C)[C@@H](O)[C@]1(C)O [ROXITHROMYCIN]
- BASOPHIL [1]: 1.52%
- EOSINOPHIL [1]: 0.98%
- ERYTHROCYTE COUNT [1]: 6.96 x10E6/uL
- HEMATOCRIT [1]: 44.65%
- HEMOGLOBIN [1]: 13.62 G/DL
- LEUKOCYTE COUNT [1]: 9.83 x10E3/uL
- LYMPHOCYTE [1]: 76.48%
- MEAN CORPUSCULAR HEMOGLOBIN [1]: 19.57 pg
- MEAN CORPUSCULAR HEMOGLOBIN CONCENTRATION [1]: 30.47 G/DL
- MEAN CORPUSCULAR VOLUME [1]: 64.22 fL
- MONOCYTE [1]: 2.13%
- NEUTROPHIL [1]: 18.6%
- PLATELET COUNT [1]: 1217.17 x10E3/uL
- ALANINE AMINOTRANSFERASE [1]: 41 u/L
- ALBUMIN [1]: 3.77 G/DL
- ALKALINE PHOSPHATASE [1]: 411.83 u/L
- ASPARTATE AMINOTRANSFERASE [1]: 62.83 u/L
- BLOOD UREA NITROGEN [1]: 15.17 mg/dL
- CHLORIDE [1]: 104.33 MEQ/L
- CHOLESTEROL [1]: 71.17 mg/dL
- CREATINE PHOSPHOKINASE [1]: 123.5 u/L
- CREATININE [1]: 0.55 mg/dL
- GLUCOSE [1]: 182.67 mg/dL
- PHOSPHORUS [1]: 11.23 mg/dL
- POTASSIUM [1]: 7.03 MEQ/L
- SODIUM [1]: 148 MEQ/L
- TOTAL BILIRUBIN [1]: 0.57 mg/dL
- TOTAL PROTEIN [1]: 6.85 G/DL
- BASOPHIL [2]: 1.35%
- EOSINOPHIL [2]: 0.43%
- ERYTHROCYTE COUNT [2]: 6.96 x10E6/uL
- HEMATOCRIT [2]: 44.35%
- HEMOGLOBIN [2]: 13.98 G/DL
- LEUKOCYTE COUNT [2]: 9.45 x10E3/uL
- LYMPHOCYTE [2]: 80.83%
- MEAN CORPUSCULAR HEMOGLOBIN [2]: 20.1 pg
- MEAN CORPUSCULAR HEMOGLOBIN CONCENTRATION [2]: 31.52 G/DL
- MEAN CORPUSCULAR VOLUME [2]: 63.72 fL
- MONOCYTE [2]: 2.37%
- NEUTROPHIL [2]: 14.05%
- PLATELET COUNT [2]: 1298 x10E3/uL
- ALANINE AMINOTRANSFERASE [2]: 42.17 u/L
- ALBUMIN [2]: 3.77 G/DL
- ALKALINE PHOSPHATASE [2]: 419 u/L
- ASPARTATE AMINOTRANSFERASE [2]: 66.67 u/L
- BLOOD UREA NITROGEN [2]: 16.67 mg/dL
- CHLORIDE [2]: 103.17 MEQ/L
- CHOLESTEROL [2]: 66.33 mg/dL
- CREATINE PHOSPHOKINASE [2]: 148.33 u/L
- CREATININE [2]: 0.58 mg/dL
- GLUCOSE [2]: 196.83 mg/dL
- PHOSPHORUS [2]: 11.8 mg/dL
- POTASSIUM [2]: 6.47 MEQ/L
- SODIUM [2]: 148.33 MEQ/L
- TOTAL BILIRUBIN [2]: 0.53 mg/dL
- TOTAL PROTEIN [2]: 6.77 G/DL
- BASOPHIL [3]: 1.33%
- EOSINOPHIL [3]: 0.27%
- ERYTHROCYTE COUNT [3]: 7.39 x10E6/uL
- HEMATOCRIT [3]: 47.23%
- HEMOGLOBIN [3]: 14.73 G/DL
- LEUKOCYTE COUNT [3]: 12.3 x10E3/uL
- LYMPHOCYTE [3]: 88.63%
- MEAN CORPUSCULAR HEMOGLOBIN [3]: 19.9 pg
- MEAN CORPUSCULAR HEMOGLOBIN CONCENTRATION [3]: 31.13 G/DL
- MEAN CORPUSCULAR VOLUME [3]: 63.97 fL
- MONOCYTE [3]: 1.7%
- NEUTROPHIL [3]: 7.6%
- PLATELET COUNT [3]: 1462 x10E3/uL
- ALANINE AMINOTRANSFERASE [3]: 37.67 u/L
- ALBUMIN [3]: 3.7 G/DL
- ALKALINE PHOSPHATASE [3]: 340.33 u/L
- ASPARTATE AMINOTRANSFERASE [3]: 58.33 u/L
- BLOOD UREA NITROGEN [3]: 12.33 mg/dL
- CHLORIDE [3]: 104.67 MEQ/L
- CHOLESTEROL [3]: 59.67 mg/dL
- CREATINE PHOSPHOKINASE [3]: 128 u/L
- CREATININE [3]: 0.57 mg/dL
- GLUCOSE [3]: 224 mg/dL
- PHOSPHORUS [3]: 13.23 mg/dL
- POTASSIUM [3]: 6.93 MEQ/L
- SODIUM [3]: 148.67 MEQ/L
- TOTAL BILIRUBIN [3]: 0.4 mg/dL
- TOTAL PROTEIN [3]: 6.7 G/DL
- BASOPHIL [4]: 1.4%
- EOSINOPHIL [4]: 0.3%
- ERYTHROCYTE COUNT [4]: 7.37 x10E6/uL
- HEMATOCRIT [4]: 44.93%
- HEMOGLOBIN [4]: 14.13 G/DL
- LEUKOCYTE COUNT [4]: 11.7 x10E3/uL
- LYMPHOCYTE [4]: 81.47%
- MEAN CORPUSCULAR HEMOGLOBIN [4]: 19.27 pg
- MEAN CORPUSCULAR HEMOGLOBIN CONCENTRATION [4]: 31.5 G/DL
- MEAN CORPUSCULAR VOLUME [4]: 61.2 fL
- MONOCYTE [4]: 2.4%
- NEUTROPHIL [4]: 13.53%
- PLATELET COUNT [4]: 1353.33 x10E3/uL
- ALANINE AMINOTRANSFERASE [4]: 35.67 u/L
- ALBUMIN [4]: 3.57 G/DL
- ALKALINE PHOSPHATASE [4]: 391.67 u/L
- ASPARTATE AMINOTRANSFERASE [4]: 57.67 u/L
- BLOOD UREA NITROGEN [4]: 12.67 mg/dL
- CHLORIDE [4]: 103 MEQ/L
- CHOLESTEROL [4]: 66.33 mg/dL
- CREATINE PHOSPHOKINASE [4]: 131.67 u/L
- CREATININE [4]: 0.57 mg/dL
- GLUCOSE [4]: 185.67 mg/dL
- PHOSPHORUS [4]: 12.77 mg/dL
- POTASSIUM [4]: 6.73 MEQ/L
- SODIUM [4]: 148.33 MEQ/L
- TOTAL BILIRUBIN [4]: 0.3 mg/dL
- TOTAL PROTEIN [4]: 6.23 G/DL
